Test results taken from ChEMBL document CHEMBL1154504, “Discovery and development of heat shock protein 90 inhibitors” (Bioorg Med Chem, 2009).
Values after ≈ are worked out from the molar mass of the structure shown.

How the values were obtained:
[1] = biological target: Receptor tyrosine-protein kinase erbB-2 (Homo sapiens, UniProt P04626); test: Inhibition of Her2 in human SKBR3 cells; assay type: cell-based, SK-BR-3
[2] = Solubility in water; assay type: physicochemical
[3] = biological target: T1, Heat shock protein HSP 90-beta (Homo sapiens, UniProt P08238); test: Inhibition of Hsp90
HCT-116 [4] = test: cells; conditions: Homo sapiens
Description: Antiproliferative against human HCT116 cells

MCF7 [5] = test: Cytotoxicity against human MCF7 cells; assay type: functional, cell-based
[6] = biological target: ATP-dependent molecular chaperone HSP82 (Saccharomyces cerevisiae S288c, UniProt P02829); test: Binding affinity to yeast Hsp90 ATPase activity
NCI-N87 [7] = test: Antitumor activity in human NCI-N87 cells xenografted mouse assessed as inhibition of tumor growth at 200 mg/kg, po administered daily once for 5 days per week measured after 30 days; assay type: functional; conditions: read-out: GI
HCT-116 [8] = test: Antitumor activity in human HCT116 cells xenografted mouse assessed as inhibition of tumor growth at 100 mg/kg, ip; assay type: functional; conditions: HCT-116, ip, route intraperitoneal, read-out: GI
[9] = biological target: T1, Heat shock protein HSP 90-beta; test: Inhibition of Hsp90 in human MCF7 cells assessed as Her2 degradation; assay type: cell-based
[10] = biological target: T1, Heat shock protein HSP 90-beta; test: Binding affinity to Hsp90 by fluorescence polarization assay
[11] = Inhibition of Rous sarcoma virus v-Src
[12] = biological target: T1, Heat shock protein HSP 90-beta; test: Inhibition of Hsp90 in human SKBR3 cells assessed as Her2 degradation; assay type: cell-based, SK-BR-3
MCF7 [13] = test: Antitumor activity in human MCF7 cells xenografted mouse assessed as reduction of tumor burden at 200 mg/kg, ip administered alternative days; assay type: functional; set-up: scale not given: the % may be the effect or the level left; conditions: route intraperitoneal
[14] = biological target: T1, Heat shock protein HSP 90-beta; test: Binding affinity to Hsp90 in human SKBR3 cells; assay type: cell-based, SK-BR-3
cells = conditions: Homo sapiens, NCI60, read-out: GI
Description: Growth inhibition of human NCI60 cells at 13 nM

HCT-116 [15] = test: Antitumor activity in human HCT116 cells xenografted mouse assessed as inhibition of tumor growth at 50 mg/kg, ip; assay type: functional; conditions: HCT-116, ip, route intraperitoneal, read-out: GI
[16] = biological target: T1, Heat shock protein HSP 90-beta; test: Inhibition of Hsp90 assessed as Her2 degradation by cell based assay
NCI-N87 [17] = test: Antitumor activity in human NCI-N87 cells xenografted mouse assessed as inhibition of tumor growth at 60 mg/kg, po administered daily once for 5 days per week measured after 5 weeks; assay type: functional; conditions: read-out: GI
NCI-N87 [18] = test: Antitumor activity in human NCI-N87 cells xenografted mouse assessed as inhibition of tumor growth at 125 mg/kg, po administered daily once for 5 days per week measured after 5 weeks; assay type: functional; conditions: read-out: GI

T1 sequence (P08238 whole entry): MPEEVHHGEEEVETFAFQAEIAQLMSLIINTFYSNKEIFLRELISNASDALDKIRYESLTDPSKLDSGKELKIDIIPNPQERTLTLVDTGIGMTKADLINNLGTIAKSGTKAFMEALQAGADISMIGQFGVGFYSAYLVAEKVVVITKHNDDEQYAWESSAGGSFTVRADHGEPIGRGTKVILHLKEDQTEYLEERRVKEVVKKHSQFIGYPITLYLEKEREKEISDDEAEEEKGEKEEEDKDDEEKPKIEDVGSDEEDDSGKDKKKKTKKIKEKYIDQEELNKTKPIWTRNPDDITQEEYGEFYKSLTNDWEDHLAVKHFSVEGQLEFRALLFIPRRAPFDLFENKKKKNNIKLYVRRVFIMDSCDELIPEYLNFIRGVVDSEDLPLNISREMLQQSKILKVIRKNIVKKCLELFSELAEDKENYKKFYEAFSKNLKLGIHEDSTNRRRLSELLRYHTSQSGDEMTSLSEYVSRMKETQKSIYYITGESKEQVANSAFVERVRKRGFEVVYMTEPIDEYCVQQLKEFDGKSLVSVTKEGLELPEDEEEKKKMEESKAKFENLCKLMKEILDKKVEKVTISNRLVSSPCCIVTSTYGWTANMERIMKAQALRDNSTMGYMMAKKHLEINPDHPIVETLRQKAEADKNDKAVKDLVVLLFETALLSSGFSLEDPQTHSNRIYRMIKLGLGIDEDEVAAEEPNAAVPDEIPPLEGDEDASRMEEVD
Receptor tyrosine-protein kinase erbB-2, sequence (P04626 whole entry): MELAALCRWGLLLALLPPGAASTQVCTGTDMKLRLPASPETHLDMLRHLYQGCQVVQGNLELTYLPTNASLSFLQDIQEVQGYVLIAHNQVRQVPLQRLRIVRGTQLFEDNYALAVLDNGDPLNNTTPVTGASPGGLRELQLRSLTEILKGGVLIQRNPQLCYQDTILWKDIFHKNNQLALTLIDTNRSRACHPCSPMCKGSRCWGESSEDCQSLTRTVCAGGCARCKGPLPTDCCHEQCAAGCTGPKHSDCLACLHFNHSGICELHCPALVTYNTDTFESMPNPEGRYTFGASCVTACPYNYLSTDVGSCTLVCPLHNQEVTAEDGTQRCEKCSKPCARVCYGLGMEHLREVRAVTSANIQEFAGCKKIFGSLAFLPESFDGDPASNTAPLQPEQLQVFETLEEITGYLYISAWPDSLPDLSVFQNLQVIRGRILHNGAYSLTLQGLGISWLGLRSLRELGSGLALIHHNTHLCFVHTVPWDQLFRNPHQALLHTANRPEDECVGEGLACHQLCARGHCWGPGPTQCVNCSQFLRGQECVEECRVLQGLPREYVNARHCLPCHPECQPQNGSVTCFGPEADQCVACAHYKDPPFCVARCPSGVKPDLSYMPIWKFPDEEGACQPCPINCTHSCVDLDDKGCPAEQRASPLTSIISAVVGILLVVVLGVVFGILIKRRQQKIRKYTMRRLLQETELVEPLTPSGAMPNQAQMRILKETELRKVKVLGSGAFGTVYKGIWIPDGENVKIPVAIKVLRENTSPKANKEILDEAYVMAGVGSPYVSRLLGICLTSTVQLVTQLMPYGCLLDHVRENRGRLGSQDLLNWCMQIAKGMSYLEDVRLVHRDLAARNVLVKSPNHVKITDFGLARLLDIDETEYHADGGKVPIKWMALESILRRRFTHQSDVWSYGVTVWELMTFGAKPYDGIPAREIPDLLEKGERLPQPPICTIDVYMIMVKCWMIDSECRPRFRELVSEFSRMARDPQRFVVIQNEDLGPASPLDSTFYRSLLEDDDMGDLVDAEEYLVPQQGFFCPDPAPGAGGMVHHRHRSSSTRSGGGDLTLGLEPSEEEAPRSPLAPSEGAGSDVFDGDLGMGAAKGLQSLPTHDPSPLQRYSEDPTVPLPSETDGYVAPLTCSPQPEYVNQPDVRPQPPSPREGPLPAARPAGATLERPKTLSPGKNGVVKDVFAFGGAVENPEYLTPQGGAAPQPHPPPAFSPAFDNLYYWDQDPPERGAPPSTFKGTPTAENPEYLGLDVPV
ATP-dependent molecular chaperone HSP82, sequence (P02829 whole entry): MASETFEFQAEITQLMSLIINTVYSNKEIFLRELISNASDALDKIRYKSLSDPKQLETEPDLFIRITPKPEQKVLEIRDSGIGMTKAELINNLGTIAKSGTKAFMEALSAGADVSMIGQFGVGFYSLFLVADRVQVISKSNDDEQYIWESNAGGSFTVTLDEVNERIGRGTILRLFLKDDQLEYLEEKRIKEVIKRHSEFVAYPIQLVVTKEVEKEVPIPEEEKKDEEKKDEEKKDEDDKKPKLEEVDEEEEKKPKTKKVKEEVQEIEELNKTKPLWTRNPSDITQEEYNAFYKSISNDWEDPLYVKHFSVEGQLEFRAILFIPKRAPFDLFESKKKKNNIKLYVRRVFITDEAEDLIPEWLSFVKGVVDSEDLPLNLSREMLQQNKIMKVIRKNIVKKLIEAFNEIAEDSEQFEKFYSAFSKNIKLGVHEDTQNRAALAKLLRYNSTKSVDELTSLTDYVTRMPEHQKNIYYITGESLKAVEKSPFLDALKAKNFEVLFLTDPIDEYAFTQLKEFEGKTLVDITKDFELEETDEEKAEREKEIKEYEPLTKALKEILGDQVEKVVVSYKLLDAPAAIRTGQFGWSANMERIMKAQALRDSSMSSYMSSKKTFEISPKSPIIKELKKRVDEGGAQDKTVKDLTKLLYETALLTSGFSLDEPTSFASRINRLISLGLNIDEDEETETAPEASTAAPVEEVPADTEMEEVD

Structure (SMILES): C=CCNC1=C2C[C@@H](C)C[C@H](OC)[C@H](O)[C@@H](C)/C=C(\C)[C@H](OC(N)=O)[C@@H](OC)/C=C\C=C(/C)C(=O)NC(=CC1=O)C2=O [TANESPIMYCIN]
- IC50 [1]: 31 nM
- solubility [2]: 50 µg/mL (≈ 0.0854 mM)

Structure (SMILES): Cc1nc(-c2c(-c3ccc(O)cc3O)noc2C(F)(F)F)cs1
- IC50 [3]: 9000 nM

Structure (SMILES): CCNC(=O)c1noc(-c2cc(C(C)C)c(O)cc2O)c1-c1ccc(CN(CC)CC)cc1
- GI50 (HCT-116 [4]): 6 nM

Structure (SMILES): C[C@@H]1C[C@H]2C[C@@H]2/C=C\C=C\C(=O)Cc2c(Cl)c(O)cc(O)c2C(=O)O1 [CYCLOPROPARADICICOL]
- IC50 (MCF7 [5]): 43 nM
- ED50 [3]: 160 nM

Structure (SMILES): C=CCNc1c(O)cc2c(O)c1C[C@@H](C)C[C@H](OC)[C@H](O)[C@@H](C)/C=C(\C)[C@H](OC(N)=O)[C@@H](OC)/C=C\C=C(/C)C(=O)N2.Cl [RETASPIMYCIN HYDROCHLORIDE]
- solubility [2]: > 250000 µg/mL

Structure (SMILES): Cc1[nH]nc(-c2cc(Cl)c(O)cc2O)c1-c1ccc2c(c1)OCCO2
- IC50 [6]: < 1000 nM
- GI50 (HCT-116 [4]): 4000 nM

Structure (SMILES): CCc1cc(-c2[nH]nc(C)c2-c2ccc3c(c2)OCCO3)c(O)cc1O
- GI50 (HCT-116 [4]): 4100 nM

Structure (SMILES): COc1ccc(I)c(Sc2nc3c(N)ncnc3n2CCNCC(C)(C)C)c1
- solubility [2]: > 10000 µg/mL
- inhibition in vivo at 200 mg/kg (NCI-N87 [7]): 70%

Structure (SMILES): C[C@@H]1C[C@H]2O[C@@H]2/C=C\C=C\C(=O)Cc2c(Cl)c(O)cc(O)c2C(=O)O1 [RADICICOL]
- IC50 (MCF7 [5]): 23 nM

Structure (SMILES): CCNC(=O)c1noc(-c2cc(Cl)c(O)cc2O)c1-c1ccc(OC)cc1
- inhibition in vivo at 100 mg/kg (HCT-116 [8]): 30%

Structure (SMILES): COc1ccc(I)c(Sc2nc3c(N)ncnc3n2CCCNC(C)(C)C)c1
- solubility [2]: > 10000 µg/mL

Structure (SMILES): Oc1cc(O)c(-c2n[nH]cc2N2CCN(Cc3ccccc3)CC2)cc1Cl
- GI50 (HCT-116 [4]): 6500 nM

Structure (SMILES): Nc1ncnc2c1nc(Sc1nc3cccc(Cl)c3s1)n2CCNC1CC1
- IC50 [9]: 110 nM

Structure (SMILES): C[C@H]1CCCC(=O)CCCCCc2cc(O)cc(O)c2C(=O)O1 [ZEARALANONE]
- IC50 [3]: 90 nM

Structure (SMILES): Oc1cc(O)c(-c2noc3ccc(NCCN4CCOCC4)cc23)cc1Cl
- IC50 [10]: 30 nM

Structure (SMILES): CC(C)(C)CNCCn1c(Sc2nc3cccc(Cl)c3s2)nc2c(N)ncnc21
- IC50 [9]: 35 nM

Structure (SMILES): C[C@@H]1C[C@H]2O[C@@H]2\C=C/C=C/C(=N\OC(=O)N2CCCCC2)Cc2c(Cl)c(O)cc(O)c2C(=O)O1
- IC50 [11]: 25 nM

Structure (SMILES): C#CCCCn1c(Sc2cc3c(cc2Br)OCO3)nc2c(N)ncnc21
- EC50 [3]: 30 nM
- IC50 [12]: 300 nM

Structure (SMILES): CCCCn1c(Sc2nc3cccc(Cl)c3s2)nc2c(N)ncnc21
- IC50 [9]: 180 nM

Structure (SMILES): C#CCCCn1c(Cc2cc(OC)c(OC)c(OC)c2Cl)nc2c(N)nc(F)nc21
- Activity (MCF7 [13]): 72%

Structure (SMILES): CO[C@H]1C[C@H](C)Cc2cc(O)cc(c2)NC(=O)/C=C/CC[C@H](OC)[C@@H](OC(N)=O)/C(C)=C/[C@H](C)[C@H]1O
- Kd [14]: 16 nM

Structure (SMILES): CS(=O)(=O)c1ccc(CN2CCN(c3cn[nH]c3-c3cc(Cl)c(O)cc3O)CC2)cc1
- IC50 [10]: 740 nM
- GI50 (HCT-116 [4]): 3100 nM

Structure (SMILES): C[C@H]1C[C@H]2O[C@@H]2CC/C=C/C(=O)Cc2c(Cl)c(O)cc(O)c2C(=O)O1 [POCHONIN A]
- IC50 [3]: 90 nM

Structure (SMILES): COC1=C2C[C@@H](C)C[C@H](OC)[C@H](O)[C@@H](C)/C=C(\C)[C@H](OC(N)=O)[C@@H](OC)/C=C\C=C(/C)C(=O)NC(=CC1=O)C2=O [GELDANAMYCIN]
- inhibition of growth at 0.013 µM (cells): 50%

Structure (SMILES): CCNC(=O)c1noc(-c2cc(C(C)C)c(O)cc2O)c1-c1ccc(CN2CCOCC2)cc1 [LUMINESPIB]
- inhibition in vivo at 50 mg/kg (HCT-116 [15]): 50%

Structure (SMILES): COc1c(C)ncc(Cn2cnc3c(Cl)nc(N)nc32)c1C
- IC50 [16]: 20 nM
- inhibition in vivo at 60 mg/kg (NCI-N87 [17]): 83%
- inhibition in vivo at 125 mg/kg (NCI-N87 [18]): 87%

Structure (SMILES): C[C@@H]1C/C=C/CC/C=C/C(=O)Cc2c(Cl)c(O)cc(O)c2C(=O)O1 [POCHONIN D]
- IC50 [3]: 80 nM

Structure (SMILES): O=S(=O)(Nc1ccc(O)c(-c2c(O)ccc3ccccc23)c1)c1cc(Cl)ccc1Cl
- GI50 (HCT-116 [4]): 29000 nM

Structure (SMILES): Cc1cc(C#Cc2ccccc2/C=N/N2CCOC2=O)nc(N)n1
- Ki [10]: 4000 nM

Structure (SMILES): CC(C)NCCCn1c(Cc2cc3c(cc2I)OCO3)nc2c(N)nc(F)nc21
- IC50 [12]: 90 nM
- EC50 [10]: 22 nM
